The structures appear in SMILES notation.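 How tested: cells in 96-well plates exposed to compound for 48 hours at five concentrations. GI50 marks 50% less growth.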 Calls of active or inactive are those of the source. Cut-off read from the data, not from the text of the source: active = GI50 up to about 1.1 µM and inactive = higher.

Common to all, as to test: growth of human tumour cells (NCI), 48 h
Experiment [1] concerns COLO 205.
The test system of experiment [2] is NCI-H522.
Experiment [3] concerns K562.
For experiment [4], the system named is DU-145.
Experiment [5] relates to LOX IMVI.
Experiment [6] deals with HT-29.
The test system of experiment [7] is SNB-75.
Experiment [8] relates to SF-295.
The test system of experiment [9] is OVCAR-3.
The test system of experiment [10] is HOP-62.
Experiment [11] has as its system HOP-92.
The subject of experiment [12] is NCI/ADR-RES.
Experiment [13] has as its system OVCAR-4.
For experiment [14], the system named is HCC 2998.
The subject of experiment [15] is NCI-H226.
The test system of experiment [16] is MDA-MB-231.
For experiment [17], the system named is SK-MEL-28.
Experiment [18] concerns M14.
The subject of experiment [19] is A498.
For experiment [20], the system named is SR.

Regarding `CC(CN1NC12CCCC2)N1NC12CCCC2` (configuration not stated), the GI50 in experiment [1], in [2], in experiment [3], in experiment [4], in experiment [5] and in [6] was > 100 µM (inactive) throughout. The GI50 in experiment [7], in [8], in [9], in [10], in experiment [11] and in [12] was > 100 µM (inactive) each time. For the same compound, the GI50 in experiment [13], in experiment [14], in experiment [15], in experiment [16], in experiment [17] and in experiment [18] was > 100 µM (inactive) throughout. In addition, the GI50 in [19] is > 100 µM (inactive).

Take `Cc1ccc(S(=O)(=O)N2CCCN(S(=O)(=O)c3ccc(C)cc3)CCN(S(=O)(=O)c3ccc(C)cc3)CCCSCC2)cc1`: the GI50 was > 100 µM (inactive) in experiment [1]; > 100 µM (inactive) in [3]; > 100 µM (inactive) in experiment [4]; > 100 µM (inactive) in experiment [6]; > 100 µM (inactive) in experiment [7]; 89.7 µM (inactive) in experiment [8]. Moreover, the GI50 in experiment [9] was > 100 µM (inactive); in experiment [10], 54.5 µM (inactive); in experiment [11], > 100 µM (inactive); in [12], > 100 µM (inactive); in experiment [13], > 100 µM (inactive); in experiment [14], > 100 µM (inactive). Also, the GI50 in [15] is > 100 µM (inactive); in [16], 59.3 µM (inactive); in experiment [17], > 100 µM (inactive); in experiment [18], > 100 µM (inactive); in [19], > 100 µM (inactive).

For `COc1ccc(/C=C/c2cc(OC)c(OC)c(OC)c2)cc1O[Si](C)(C)C(C)(C)C`, the GI50 in experiment [1] was 15.7 µM (inactive); in experiment [2], 1.87 µM (inactive); in [4] it was 7.11 µM (inactive); in experiment [6], 37.9 µM (inactive); in experiment [7] it was 2.03 µM (inactive); in [8], 26 µM (inactive). The GI50 was 5.93 µM (inactive) in experiment [10]; 15.6 µM (inactive) in experiment [11]; 19 µM (inactive) in experiment [13]; 43.5 µM (inactive) in experiment [14]; 5.19 µM (inactive) in experiment [15]; 5.02 µM (inactive) in [16]. Also, the GI50 in [17] was 25.1 µM (inactive); in experiment [18], 5.97 µM (inactive); in experiment [19], 12.7 µM (inactive).

Consider `COc1ccc(C)cc1NC(=S)N/N=C/c1ccco1`, for which the GI50 in experiment [1] is 21.8 µM (inactive); in experiment [2] it was 22.8 µM (inactive); in experiment [3], 25.9 µM (inactive); in experiment [4], > 100 µM (inactive); in experiment [5], 43.1 µM (inactive); in [6] it was 29 µM (inactive). Further, the GI50 was 39.9 µM (inactive) in experiment [7]; 40.2 µM (inactive) in [8]; 49.2 µM (inactive) in experiment [9]; 11.3 µM (inactive) in [20]; 48.3 µM (inactive) in experiment [10]; 64.6 µM (inactive) in experiment [11]. Also, the GI50 in experiment [12] is 31.4 µM (inactive); in [13], 37.4 µM (inactive); in experiment [14] it was 36.5 µM (inactive); in [15] it was 25.9 µM (inactive); in experiment [17] it was 60.8 µM (inactive); in experiment [18], 34.6 µM (inactive). Further, the GI50 in experiment [19] is 57.3 µM (inactive).

Consider `COc1ccc(-n2cnn3c(=O)c4cn[nH]c4nc23)cc1`, for which the GI50 in experiment [2], in experiment [3], in [4], in [5], in experiment [6] and in [7] was > 10 µM (inactive) throughout. Further, the GI50 in experiment [8] is > 10 µM (inactive); in experiment [9], > 10 µM (inactive); in experiment [20], > 10 µM (inactive); in [11] it was 0.748 µM (active); in experiment [13] it was > 10 µM (inactive); in [14] it was > 10 µM (inactive). Besides, the GI50 in experiment [15] was > 10 µM (inactive); in experiment [16], 0.00724 µM (active); in [18], > 10 µM (inactive).

Consider `Cc1cc(C)nc(SCCc2cccc[n+]2C)n1`, for which the GI50 in experiment [1], in experiment [2], in experiment [3], in experiment [4], in [5] and in experiment [6] was > 100 µM (inactive) each time. Further, the GI50 in [7], in experiment [8], in [9], in [10], in experiment [11] and in experiment [12] was > 100 µM (inactive) in each case. In addition, the GI50 in [13], in experiment [14], in [15], in [16], in experiment [17] and in experiment [18] was > 100 µM (inactive) in each case. For the same compound, the GI50 in experiment [19] was 60.7 µM (inactive).

Consider `CCNC12CCC(C1)C(C)(C)C2=O` (configuration not stated), for which the GI50 in experiment [1], in experiment [3], in experiment [4], in [5], in experiment [7] and in [8] was > 100 µM (inactive) in each case. Further, the GI50 in experiment [9], in experiment [20], in experiment [10], in experiment [11], in experiment [12] and in experiment [13] was > 100 µM (inactive) throughout. The GI50 in experiment [14], in experiment [15], in experiment [17], in experiment [18] and in experiment [19] was > 100 µM (inactive) in each case.

Take `Cc1cc(NS(=O)(=O)c2ccc(/N=N/c3c(Nc4ccccc4)nn(-c4ccc(S(=O)(=O)Nc5ccncn5)cc4)c3C)cc2)no1`: the GI50 was > 100 µM (inactive) in experiment [1]; > 100 µM (inactive) in [2]; 86.1 µM (inactive) in experiment [3]; > 100 µM (inactive) in [4]; > 100 µM (inactive) in experiment [5]; > 100 µM (inactive) in experiment [6]. Moreover, the GI50 in experiment [7], in [8], in [9], in experiment [10], in experiment [11] and in experiment [12] was > 100 µM (inactive) in each case. For the same compound, the GI50 in [13], in [14], in experiment [15], in experiment [16], in experiment [17] and in experiment [18] was > 100 µM (inactive) throughout.

Turning to `COc1cc(OC)cc(-n2c(N)c(-c3nc4ccccc4n3C)c3ccc([N+](=O)[O-])cc3c2=O)c1`, the GI50 is > 100 µM (inactive) in [1]; 55.8 µM (inactive) in experiment [2]; > 100 µM (inactive) in [3]; > 100 µM (inactive) in experiment [4]; > 100 µM (inactive) in experiment [5]; > 100 µM (inactive) in [6]. The GI50 in experiment [7] was 2.02 µM (inactive); in [11], 18.6 µM (inactive); in experiment [12], 33.8 µM (inactive); in experiment [13] it was 28.2 µM (inactive); in experiment [14] it was > 100 µM (inactive); in experiment [15], 70.6 µM (inactive). Moreover, the GI50 is 80.5 µM (inactive) in experiment [16], > 100 µM (inactive) in [17] and > 100 µM (inactive) in experiment [19].

As to `CC1CC/C(=C\c2ccc(F)cc2)C2=C1C(c1ccc(F)cc1)N1C(=O)CSC1=N2` (configuration not stated), the GI50 in experiment [1] is > 100 µM (inactive); in [3], 21.9 µM (inactive); in experiment [4], > 100 µM (inactive); in experiment [5], 44 µM (inactive); in [6] it was 23.2 µM (inactive); in [8], 45.6 µM (inactive). In addition, the GI50 is > 100 µM (inactive) in experiment [9]; 49.9 µM (inactive) in experiment [12]; 53 µM (inactive) in experiment [15]; > 100 µM (inactive) in experiment [16]; > 100 µM (inactive) in experiment [17]; > 100 µM (inactive) in [18]. The GI50 in experiment [19] was 57 µM (inactive).

On to `O=C1CCC2(c3ccc(F)cc3)Nc3ncncc3N12` (configuration not stated), for which the GI50 in experiment [2], in experiment [3], in experiment [4], in experiment [5], in [6] and in experiment [7] was > 10 µM (inactive) throughout. Further, the GI50 in experiment [8], in [9], in experiment [20], in experiment [11], in experiment [12] and in [13] was > 10 µM (inactive) each time. For the same compound, the GI50 in experiment [14], in experiment [15] and in experiment [18] was > 10 µM (inactive) each time.

`COc1nc2ncc([C@@H](OC(C)=O)[C@@H](COC(C)=O)OC(C)=O)nc2c(=O)[nH]1`: the GI50 in [1], in experiment [3], in experiment [4], in experiment [5], in [6] and in experiment [8] was > 100 µM (inactive) in each case. For the same compound, the GI50 in experiment [9] is > 100 µM (inactive); in experiment [10], > 100 µM (inactive); in experiment [12], > 100 µM (inactive); in [13], > 100 µM (inactive); in [15], 51.5 µM (inactive); in experiment [16], > 100 µM (inactive). Besides, the GI50 in experiment [17], in [18] and in experiment [19] was > 100 µM (inactive) in each case.
